# Square brackets hold non-standard residues; d marks the D form. Peptide text beside a SMILES is read from it. * marks the point of attachment. ξ: configuration not given here. Dansyl = CN(C)c1cccc2c(S(=O)(=O)*)cccc12; ξL = CC(C)CC(N)C(=O)O
# Tested on: receptor labeled by the radioiodinated analogue of 1 (4, [125I]-YLFQPQRF-NH2); neuropeptide FF receptor
# Test: Competitive radioligand binding against 4 ([125I]Y8F-amide)
# Conditions: mixture-based positional scanning; difference from averaged radioligand displacement of whole library (0); about 80 a.u. = 10-fold change in Ki
row,Compound,Relative Binding Index (RBI)
1,CN(C)c1cccc2c(S(=O)(=O)N[C@@H](CCCCN)C(=O)N[C@@H](CCC(=O)O)C(=O)N[C@@H](CCCNC(=N)N)C(N)=O)cccc12 [Dansyl-KER-amide] (Dansyl-Lys-Glu-Arg-NH2),25 a.u.
2,CN(C)c1cccc2c(S(=O)(=O)N[C@@H](CCCCN)C(=O)N[C@@H](Cc3ccccc3)C(=O)N[C@@H](CCCNC(=N)N)C(N)=O)cccc12 [Dansyl-KFR-amide] (Dansyl-Lys-Phe-Arg-NH2),23 a.u.
3,CN(C)c1cccc2c(S(=O)(=O)N[C@@H](CCCCN)C(=O)NCC(=O)N[C@@H](CCCNC(=N)N)C(N)=O)cccc12 [Dansyl-KGR-amide] (Dansyl-Lys-Gly-Arg-NH2),30 a.u.
4,CN(C)c1cccc2c(S(=O)(=O)N[C@@H](CCCCN)C(=O)N[C@@H](Cc3c[nH]cn3)C(=O)N[C@@H](CCCNC(=N)N)C(N)=O)cccc12 [Dansyl-KHR-amide] (Dansyl-Lys-His-Arg-NH2),19 a.u.
5,CCC(C)C(NC(=O)C(CCCCN)NS(=O)(=O)c1cccc2c(N(C)C)cccc12)C(=O)NC(CCCNC(=N)N)C(N)=O (stereo not drawn) [Dansyl-KIR-amide] (Dansyl-Lys-Ile-Arg-NH2; configuration not given here),31 a.u.
6,CN(C)c1cccc2c(S(=O)(=O)N[C@@H](CCCCN)C(=O)N[C@@H](CCCCN)C(=O)N[C@@H](CCCNC(=N)N)C(N)=O)cccc12 [Dansyl-KKR-amide] (Dansyl-Lys-Lys-Arg-NH2),22 a.u.
7,CC(C)CC(NC(=O)[C@H](CCCCN)NS(=O)(=O)c1cccc2c(N(C)C)cccc12)C(=O)N[C@@H](CCCNC(=N)N)C(N)=O (some centres unmarked) [Dansyl-KLR-amide] (Dansyl-Lys-[ξL]-Arg-NH2),16 a.u.
8,CSCC[C@H](NC(=O)[C@H](CCCCN)NS(=O)(=O)c1cccc2c(N(C)C)cccc12)C(=O)N[C@@H](CCCNC(=N)N)C(N)=O [Dansyl-KMR-amide] (Dansyl-Lys-Met-Arg-NH2),25 a.u.
9,CN(C)c1cccc2c(S(=O)(=O)N[C@@H](CCCCN)C(=O)N[C@@H](CC(N)=O)C(=O)N[C@@H](CCCNC(=N)N)C(N)=O)cccc12 [Dansyl-KNR-amide] (Dansyl-Lys-Asn-Arg-NH2),26 a.u.
10,CN(C)c1cccc2c(S(=O)(=O)N[C@@H](CCCCN)C(=O)N3CCC[C@H]3C(=O)N[C@@H](CCCNC(=N)N)C(N)=O)cccc12 [Dansyl-KPR-amide] (Dansyl-Lys-Pro-Arg-NH2),28 a.u.
11,CN(C)c1cccc2c(S(=O)(=O)N[C@@H](CCCCN)C(=O)N[C@@H](CCC(N)=O)C(=O)N[C@@H](CCCNC(=N)N)C(N)=O)cccc12 [Dansyl-KQR-amide] (Dansyl-Lys-Gln-Arg-NH2),38 a.u.
12,CN(C)c1cccc2c(S(=O)(=O)N[C@@H](CCCCN)C(=O)N[C@@H](CCCNC(=N)N)C(=O)N[C@@H](CCCNC(=N)N)C(N)=O)cccc12 [Dansyl-KRR-amide] (Dansyl-Lys-Arg-Arg-NH2),23 a.u.
13,CN(C)c1cccc2c(S(=O)(=O)N[C@@H](CCCCN)C(=O)N[C@@H](CO)C(=O)N[C@@H](CCCNC(=N)N)C(N)=O)cccc12 [Dansyl-KSR-amide] (Dansyl-Lys-Ser-Arg-NH2),45 a.u.
14,C[C@@H](O)[C@H](NC(=O)[C@H](CCCCN)NS(=O)(=O)c1cccc2c(N(C)C)cccc12)C(=O)N[C@@H](CCCNC(=N)N)C(N)=O [Dansyl-KTR-amide] (Dansyl-Lys-Thr-Arg-NH2),30 a.u.
15,CC(C)[C@H](NC(=O)[C@H](CCCCN)NS(=O)(=O)c1cccc2c(N(C)C)cccc12)C(=O)N[C@@H](CCCNC(=N)N)C(N)=O [Dansyl-KVR-amide] (Dansyl-Lys-Val-Arg-NH2),20 a.u.
16,CN(C)c1cccc2c(S(=O)(=O)N[C@@H](CCCCN)C(=O)N[C@@H](Cc3c[nH]c4ccccc34)C(=O)N[C@@H](CCCNC(=N)N)C(N)=O)cccc12 [Dansyl-KWR-amide] (Dansyl-Lys-Trp-Arg-NH2),34 a.u.
17,CN(C)c1cccc2c(S(=O)(=O)N[C@@H](CCCCN)C(=O)N[C@@H](Cc3ccc(O)cc3)C(=O)N[C@@H](CCCNC(=N)N)C(N)=O)cccc12 [Dansyl-KYR-amide] (Dansyl-Lys-Tyr-Arg-NH2),23 a.u.
18,CC(C)C[C@H](NS(=O)(=O)c1cccc2c(N(C)C)cccc12)C(=O)N[C@@H](C)C(=O)N[C@@H](CCCNC(=N)N)C(N)=O [Dansyl-LAR-amide] (Dansyl-Leu-Ala-Arg-NH2),−81 a.u.
19,CC(C)C[C@H](NS(=O)(=O)c1cccc2c(N(C)C)cccc12)C(=O)N[C@@H](CC(=O)O)C(=O)N[C@@H](CCCNC(=N)N)C(N)=O [Dansyl-LDR-amide] (Dansyl-Leu-Asp-Arg-NH2),−50 a.u.
20,CC(C)C[C@H](NS(=O)(=O)c1cccc2c(N(C)C)cccc12)C(=O)N[C@@H](CCC(=O)O)C(=O)N[C@@H](CCCNC(=N)N)C(N)=O [Dansyl-LER-amide] (Dansyl-Leu-Glu-Arg-NH2),−32 a.u.
21,CC(C)C[C@H](NS(=O)(=O)c1cccc2c(N(C)C)cccc12)C(=O)N[C@@H](Cc1ccccc1)C(=O)N[C@@H](CCCNC(=N)N)C(N)=O [Dansyl-LFR-amide] (Dansyl-Leu-Phe-Arg-NH2),−33 a.u.
22,CC(C)C[C@H](NS(=O)(=O)c1cccc2c(N(C)C)cccc12)C(=O)NCC(=O)N[C@@H](CCCNC(=N)N)C(N)=O [Dansyl-LGR-amide] (Dansyl-Leu-Gly-Arg-NH2),−27 a.u.
23,CC(C)C[C@H](NS(=O)(=O)c1cccc2c(N(C)C)cccc12)C(=O)N[C@@H](Cc1cnc[nH]1)C(=O)N[C@@H](CCCNC(=N)N)C(N)=O [Dansyl-LHR-amide] (Dansyl-Leu-His-Arg-NH2),−38 a.u.
24,CC[C@H](C)[C@H](NC(=O)[C@H](CC(C)C)NS(=O)(=O)c1cccc2c(N(C)C)cccc12)C(=O)N[C@@H](CCCNC(=N)N)C(N)=O [Dansyl-LIR-amide] (Dansyl-Leu-Ile-Arg-NH2),−26 a.u.

# The remaining lines, values ahead:
row,Relative Binding Index (RBI),Compound
1,−34 a.u.,CC(C)C[C@H](NS(=O)(=O)c1cccc2c(N(C)C)cccc12)C(=O)N[C@@H](CCCCN)C(=O)N[C@@H](CCCNC(=N)N)C(N)=O [Dansyl-LKR-amide] (Dansyl-Leu-Lys-Arg-NH2)
2,−40 a.u.,CC(C)C[C@H](NC(=O)[C@H](CC(C)C)NS(=O)(=O)c1cccc2c(N(C)C)cccc12)C(=O)N[C@@H](CCCNC(=N)N)C(N)=O [Dansyl-LLR-amide]
3,−32 a.u.,CSCC[C@H](NC(=O)[C@H](CC(C)C)NS(=O)(=O)c1cccc2c(N(C)C)cccc12)C(=O)N[C@@H](CCCNC(=N)N)C(N)=O [Dansyl-LMR-amide] (Dansyl-Leu-Met-Arg-NH2)
4,−31 a.u.,CC(C)C[C@H](NS(=O)(=O)c1cccc2c(N(C)C)cccc12)C(=O)N[C@@H](CC(N)=O)C(=O)N[C@@H](CCCNC(=N)N)C(N)=O [Dansyl-LNR-amide] (Dansyl-Leu-Asn-Arg-NH2)
5,−29 a.u.,CC(C)C[C@H](NS(=O)(=O)c1cccc2c(N(C)C)cccc12)C(=O)N1CCC[C@H]1C(=O)N[C@@H](CCCNC(=N)N)C(N)=O [Dansyl-LPR-amide] (Dansyl-Leu-Pro-Arg-NH2)
6,−18 a.u.,CC(C)C[C@H](NS(=O)(=O)c1cccc2c(N(C)C)cccc12)C(=O)N[C@@H](CCC(N)=O)C(=O)N[C@@H](CCCNC(=N)N)C(N)=O [Dansyl-LQR-amide] (Dansyl-Leu-Gln-Arg-NH2)
7,−33 a.u.,CC(C)C[C@H](NS(=O)(=O)c1cccc2c(N(C)C)cccc12)C(=O)N[C@@H](CCCNC(=N)N)C(=O)N[C@@H](CCCNC(=N)N)C(N)=O [Dansyl-LRR-amide] (Dansyl-Leu-Arg-Arg-NH2)
8,−11 a.u.,CC(C)C[C@H](NS(=O)(=O)c1cccc2c(N(C)C)cccc12)C(=O)N[C@@H](CO)C(=O)N[C@@H](CCCNC(=N)N)C(N)=O [Dansyl-LSR-amide] (Dansyl-Leu-Ser-Arg-NH2)
9,−26 a.u.,CC(C)C[C@H](NS(=O)(=O)c1cccc2c(N(C)C)cccc12)C(=O)N[C@H](C(=O)N[C@@H](CCCNC(=N)N)C(N)=O)[C@@H](C)O [Dansyl-LTR-amide] (Dansyl-Leu-Thr-Arg-NH2)
10,−37 a.u.,CC(C)C[C@H](NS(=O)(=O)c1cccc2c(N(C)C)cccc12)C(=O)N[C@H](C(=O)N[C@@H](CCCNC(=N)N)C(N)=O)C(C)C [Dansyl-LVR-amide] (Dansyl-Leu-Val-Arg-NH2)
11,−23 a.u.,CC(C)C[C@H](NS(=O)(=O)c1cccc2c(N(C)C)cccc12)C(=O)N[C@@H](Cc1c[nH]c2ccccc12)C(=O)N[C@@H](CCCNC(=N)N)C(N)=O [Dansyl-LWR-amide] (Dansyl-Leu-Trp-Arg-NH2)
12,−33 a.u.,CC(C)C[C@H](NS(=O)(=O)c1cccc2c(N(C)C)cccc12)C(=O)N[C@@H](Cc1ccc(O)cc1)C(=O)N[C@@H](CCCNC(=N)N)C(N)=O [Dansyl-LYR-amide] (Dansyl-Leu-Tyr-Arg-NH2)
13,−93 a.u.,CSCC[C@H](NS(=O)(=O)c1cccc2c(N(C)C)cccc12)C(=O)N[C@@H](C)C(=O)N[C@@H](CCCNC(=N)N)C(N)=O [Dansyl-MAR-amide] (Dansyl-Met-Ala-Arg-NH2)
14,−62 a.u.,CSCC[C@H](NS(=O)(=O)c1cccc2c(N(C)C)cccc12)C(=O)N[C@@H](CC(=O)O)C(=O)N[C@@H](CCCNC(=N)N)C(N)=O [Dansyl-MDR-amide] (Dansyl-Met-Asp-Arg-NH2)
15,−44 a.u.,CSCC[C@H](NS(=O)(=O)c1cccc2c(N(C)C)cccc12)C(=O)N[C@@H](CCC(=O)O)C(=O)N[C@@H](CCCNC(=N)N)C(N)=O [Dansyl-MER-amide] (Dansyl-Met-Glu-Arg-NH2)
16,−45 a.u.,CSCC[C@H](NS(=O)(=O)c1cccc2c(N(C)C)cccc12)C(=O)N[C@@H](Cc1ccccc1)C(=O)N[C@@H](CCCNC(=N)N)C(N)=O [Dansyl-MFR-amide] (Dansyl-Met-Phe-Arg-NH2)
17,−39 a.u.,CSCC[C@H](NS(=O)(=O)c1cccc2c(N(C)C)cccc12)C(=O)NCC(=O)N[C@@H](CCCNC(=N)N)C(N)=O [Dansyl-MGR-amide] (Dansyl-Met-Gly-Arg-NH2)

# From patent publication US6960574B2, “Antagonists of RF-amide neuropeptides” (University of Florida, priority 2002, dated 2005)
